This assay deals with T1, KEAP1 (Homo sapiens, UniProt Q14145).
T1 construct: recombinant KEAP1 protein (Sino Biological No. 11981-HNCB)
Put plainly: SPR (Biacore X100, immobilized recombinant KEAP1); supported by CETSA-WB in MCF-7 lysate. Format: binding.

T1 sequence (Q14145 whole entry): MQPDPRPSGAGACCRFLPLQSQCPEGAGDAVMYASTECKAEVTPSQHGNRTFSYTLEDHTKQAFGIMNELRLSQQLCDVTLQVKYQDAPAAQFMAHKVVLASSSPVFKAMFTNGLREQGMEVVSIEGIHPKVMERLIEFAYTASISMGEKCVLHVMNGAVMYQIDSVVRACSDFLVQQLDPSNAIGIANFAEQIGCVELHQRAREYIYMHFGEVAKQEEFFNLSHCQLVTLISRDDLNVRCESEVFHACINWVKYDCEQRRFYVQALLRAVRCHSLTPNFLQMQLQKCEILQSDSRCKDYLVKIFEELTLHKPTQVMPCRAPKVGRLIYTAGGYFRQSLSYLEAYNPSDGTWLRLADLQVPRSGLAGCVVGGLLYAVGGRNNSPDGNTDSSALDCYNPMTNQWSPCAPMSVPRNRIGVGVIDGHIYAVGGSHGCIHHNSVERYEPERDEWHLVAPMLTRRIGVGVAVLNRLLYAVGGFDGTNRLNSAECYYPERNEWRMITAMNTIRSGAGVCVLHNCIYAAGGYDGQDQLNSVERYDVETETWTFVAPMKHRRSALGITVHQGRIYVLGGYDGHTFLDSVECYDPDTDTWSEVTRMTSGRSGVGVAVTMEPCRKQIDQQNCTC

Consider `O=c1cc(-c2ccccc2)oc2cc(O)c(O)c(O)c12` [Baicalein], for which the Kd came to 158 µM.

The values are drawn from paper PMC11939276, “Identifying Baicalein as a Key Bioactive Compound in XueBiJing Targeting KEAP1: Implications for Antioxidant Effects” (Antioxidants, 2025).
